Non-standard residues stand in square brackets, D forms with d. Residues, ends and D or L forms follow the SMILES beside them. Groups on a side chain read outwards from the residue. *: point of attachment. NMePhe(4-NO2) = CN[C@@H](Cc1ccc([N+](=O)[O-])cc1)C(=O)O; Shikimoyl = O=C(C1=C[C@@H](O)[C@@H](O)[C@H](O)C1)*; Quinoline3carbonyl = O=C(c1cnc2ccccc2c1)*; dPhe(4-Cl) = N[C@H](Cc1ccc(Cl)cc1)C(=O)O; d2Nal = N[C@H](Cc1ccc2ccccc2c1)C(=O)O; NMeY = CN[C@@H](Cc1ccc(O)cc1)C(=O)O; NMeF = CN[C@@H](Cc1ccccc1)C(=O)O; hArg = N=C(N)NCCCC[C@H](N)C(=O)O; d3Pal = N[C@H](Cc1cccnc1)C(=O)O; Nicotinoyl = O=C(c1cccnc1)*; 2Furoyl = O=C(c1ccco1)*; Aze = O=C(O)[C@@H]1CCN1; βAla = NCCC(=O)O
Each molecule was assayed against T1, LHRH (Rattus norvegicus, UniProt P30969) (assay: in vitro test for LHRH antagonist potency (pA2)). Details: negative logarithm of the antagonist concentration required to shift the response curve produced by the agonist leuprolide to two-fold higher concentration.
T1 construct: endogenous in cells; host or cells: rat pituitary cells (own knowledge of the cited Haviv 1989 method)
T1 sequence (P30969 1-327): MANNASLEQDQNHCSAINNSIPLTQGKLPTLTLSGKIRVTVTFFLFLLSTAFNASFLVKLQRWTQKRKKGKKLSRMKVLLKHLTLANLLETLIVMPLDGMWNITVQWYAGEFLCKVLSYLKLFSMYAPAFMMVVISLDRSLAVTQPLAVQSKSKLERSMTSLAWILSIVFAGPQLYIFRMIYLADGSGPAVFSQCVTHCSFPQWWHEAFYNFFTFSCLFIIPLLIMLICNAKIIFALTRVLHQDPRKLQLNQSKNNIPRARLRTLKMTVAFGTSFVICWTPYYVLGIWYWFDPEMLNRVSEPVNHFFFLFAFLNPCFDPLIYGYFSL
Assay type: cell-based
Outline: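 Antagonism read against the agonist leuprolide on rat LHRH receptor; value is pA2, the −log of antagonist concentration that doubles the agonist concentration needed for the same response.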
CC(C)C[C@H](NC(=O)[C@@H](CCCCNC(=O)C1=C[C@@H](O)[C@@H](O)[C@H](O)C1)NC(=O)[C@H](Cc1ccc(O)cc1)N(C)C(=O)[C@H](CO)NC(=O)[C@@H](Cc1cccnc1)NC(=O)[C@@H](Cc1ccc(Cl)cc1)NC(=O)[C@@H](Cc1ccc2ccccc2c1)NC(=O)CNC(=O)c1ccco1)C(=O)N[C@@H](CCCCNC(=N)N)C(=O)N1CCC[C@H]1C(=O)N[C@H](C)C(N)=O [Example 25c, N-(2-Furoyl)-Gly-D2Nal-D4ClPhe-D3Pal-Ser-NMeTyr-DLys(Shik)-Leu-Harg-Pro-DAlaNH2] (2Furoyl-G[d2Nal][dPhe(4-Cl)][d3Pal]S[NMeY][dK](Shikimoyl)L[hArg]P[dA]-NH2) gave a Kb of 0.0017 nM.
Work on CC(C)C[C@H](NC(=O)[C@@H](CCCCNC(=O)C1=C[C@@H](O)[C@@H](O)[C@H](O)C1)NC(=O)[C@H](Cc1ccc(O)cc1)N(C)C(=O)[C@H](CO)NC(=O)[C@@H](Cc1cccnc1)NC(=O)[C@@H](Cc1ccc(Cl)cc1)NC(=O)[C@@H](Cc1ccc2ccccc2c1)NC(=O)CNC(=O)C1=C[C@@H](O)[C@@H](O)[C@H](O)C1)C(=O)N[C@@H](CCCCNC(=N)N)C(=O)N1CCC[C@H]1C(=O)N[C@H](C)C(N)=O [Example 25d, N-Shikimyl-Gly-D2Nal-D4ClPhe-D3Pal-Ser-NMeTyr-DLys(Shik)-Leu-Harg-Pro-DAlaNH2] (Shikimoyl-G[d2Nal][dPhe(4-Cl)][d3Pal]S[NMeY][dK](Shikimoyl)L[hArg]P[dA]-NH2) yielded a Kb of 0.0339 nM.
CC(C)C[C@H](NC(=O)[C@@H](CCCCNC(=O)CNC(=O)C1=C[C@@H](O)[C@@H](O)[C@H](O)C1)NC(=O)[C@H](Cc1ccc(O)cc1)N(C)C(=O)[C@H](CO)NC(=O)[C@@H](Cc1cccnc1)NC(=O)[C@@H](Cc1ccc(Cl)cc1)NC(=O)[C@@H](Cc1ccc2ccccc2c1)NC(=O)CNC(=O)c1cccnc1)C(=O)N[C@@H](CCCCNC(=N)N)C(=O)N1CCC[C@H]1C(=O)N[C@H](C)C(N)=O [Example 25e, N-Nicotinyl-Gly-D2Nal-D4ClPhe-D3Pal-Ser-NMeTyr-DLys(Gly-Shik)-Leu-Harg-Pro-DAlaNH2] (Nicotinoyl-G[d2Nal][dPhe(4-Cl)][d3Pal]S[NMeY][dK]([Gly-Shikimoyl])L[hArg]P[dA]-NH2) gave a Kb of 0.00339 nM.
CC(C)C[C@H](NC(=O)[C@@H](CCCCNC(=O)c1cccnc1)NC(=O)[C@H](Cc1ccc(O)cc1)N(C)C(=O)[C@H](CO)NC(=O)[C@@H](Cc1cccnc1)NC(=O)[C@@H](Cc1ccc(Cl)cc1)NC(=O)[C@@H](Cc1ccc2ccccc2c1)NC(=O)CNC(=O)c1cccnc1)C(=O)N[C@@H](CCCCNC(=N)N)C(=O)N1CCC[C@H]1C(=O)N[C@H](C)C(N)=O [Example 25f, N-Nicotinyl-Gly-D2Nal-D4ClPhe-D3Pal-Ser-NMeTyr-DLys(Nicotinyl)-Leu-Harg-Pro-DAlaNH2] (Nicotinoyl-G[d2Nal][dPhe(4-Cl)][d3Pal]S[NMeY][dK](Nicotinoyl)L[hArg]P[dA]-NH2) gave a Kb of 0.0234 nM.
CC(C)C[C@H](NC(=O)[C@@H](CCCCNC(=O)C1=C[C@@H](O)[C@@H](O)[C@H](O)C1)NC(=O)[C@H](Cc1ccc(O)cc1)N(C)C(=O)[C@H](CO)NC(=O)[C@@H](Cc1cccnc1)NC(=O)[C@@H](Cc1ccc(Cl)cc1)NC(=O)[C@@H](Cc1ccc2ccccc2c1)NC(=O)CNC(=O)c1cnc2ccccc2c1)C(=O)N[C@@H](CCCCNC(=N)N)C(=O)N1CCC[C@H]1C(=O)N[C@H](C)C(N)=O [Example 25g, N-(3-Quinolinylcarbonyl)-Gly-D2Nal-D4ClPhe-D3Pal-Ser-NMeTyr-DLys(Shikimyl)-Leu-Harg-Pro-DAlaNH2] (Quinoline3carbonyl-G[d2Nal][dPhe(4-Cl)][d3Pal]S[NMeY][dK](Shikimoyl)L[hArg]P[dA]-NH2) showed a Kb of 0.0324 nM.
Work on CC(C)C[C@H](NC(=O)[C@@H](CCCCNC(=O)C1=C[C@@H](O)[C@@H](O)[C@H](O)C1)NC(=O)[C@H](Cc1ccccc1)N(C)C(=O)[C@H](CO)NC(=O)[C@@H](Cc1cccnc1)NC(=O)[C@@H](Cc1ccc(Cl)cc1)NC(=O)[C@@H](Cc1ccc2ccccc2c1)NC(=O)CNC(=O)c1cccnc1)C(=O)N[C@@H](CCCCNC(=N)N)C(=O)N1CCC[C@H]1C(=O)N[C@H](C)C(N)=O [Example 26a, N-Nicotinyl-Gly-D2Nal-D4ClPhe-D3Pal-Ser-NMePhe-DLys(Shik)-Leu-Harg-Pro-DAlaNH2] (Nicotinoyl-G[d2Nal][dPhe(4-Cl)][d3Pal]S[NMeF][dK](Shikimoyl)L[hArg]P[dA]-NH2) yielded a Kb of 0.0275 nM.
CC(C)C[C@H](NC(=O)[C@@H](CCCCNC(=O)C1=C[C@@H](O)[C@@H](O)[C@H](O)C1)NC(=O)[C@H](Cc1ccc([N+](=O)[O-])cc1)N(C)C(=O)[C@H](CO)NC(=O)[C@@H](Cc1cccnc1)NC(=O)[C@@H](Cc1ccc(Cl)cc1)NC(=O)[C@@H](Cc1ccc2ccccc2c1)NC(=O)CNC(=O)c1cccnc1)C(=O)N[C@@H](CCCCNC(=N)N)C(=O)N1CCC[C@H]1C(=O)N[C@H](C)C(N)=O [Example 26b, N-Nicotinyl-Gly-D2Nal-D4ClPhe-D3Pal-Ser-NMePhe(NO2)-DLys(Shik)-Leu-Harg-Pro-DAlaNH2] (Nicotinoyl-G[d2Nal][dPhe(4-Cl)][d3Pal]S[NMePhe(4-NO2)][dK](Shikimoyl)L[hArg]P[dA]-NH2) gave a Kb of 0.0437 nM.
With CC(C)C[C@H](NC(=O)[C@@H](CCCCNC(=O)c1cccnc1)NC(=O)[C@H](Cc1ccc(O)cc1)N(C)C(=O)[C@H](CO)NC(=O)[C@@H](Cc1cccnc1)NC(=O)[C@@H](Cc1ccc(Cl)cc1)NC(=O)[C@@H](Cc1ccc2ccccc2c1)NC(=O)CNC(=O)c1cccnc1)C(=O)N[C@@H](CCCNC(=N)N)C(=O)N1CCC[C@H]1C(=O)N[C@H](C)C(N)=O [Example 27a, N-Nicotinyl-Gly-D2Nal-D4ClPhe-D3Pal-Ser-NMeTyr-DLys(Nic)-Leu-Arg-Pro-DAlaNH2] (Nicotinoyl-G[d2Nal][dPhe(4-Cl)][d3Pal]S[NMeY][dK](Nicotinoyl)LRP[dA]-NH2) the Kb was 0.00776 nM.
Molecule CC(C)C[C@H](NC(=O)[C@@H](CCCCNC(=O)c1cccnc1)NC(=O)[C@H](Cc1ccc(O)cc1)N(C)C(=O)[C@H](CO)NC(=O)[C@@H](Cc1cccnc1)NC(=O)[C@@H](Cc1ccc(Cl)cc1)NC(=O)[C@@H](Cc1ccc2ccccc2c1)NC(=O)CNC(=O)C1=C[C@@H](O)[C@@H](O)[C@H](O)C1)C(=O)N[C@@H](CCCNC(=N)N)C(=O)N1CC[C@H]1C(=O)N[C@H](C)C(N)=O [Example 27c, N-Shikimyl-Gly-D2Nal-D4ClPhe-D3Pal-Ser-NMeTyr-DLys(Nic)-Leu-Arg-Aze-DAlaNH2] (Shikimoyl-G[d2Nal][dPhe(4-Cl)][d3Pal]S[NMeY][dK](Nicotinoyl)LR[Aze][dA]-NH2) has a Kb of 0.0977 nM.
In the case of CC(C)C[C@H](NC(=O)[C@@H](CCCCNC(=O)C1=C[C@@H](O)[C@@H](O)[C@H](O)C1)NC(=O)[C@H](Cc1ccc(O)cc1)N(C)C(=O)[C@H](CO)NC(=O)[C@@H](Cc1cccnc1)NC(=O)[C@@H](Cc1ccc(Cl)cc1)NC(=O)[C@@H](Cc1ccc2ccccc2c1)NC(=O)CCNC(=O)c1cccnc1)C(=O)N[C@@H](CCCNC(=N)N)C(=O)N1CCC[C@H]1C(=O)N[C@H](C)C(N)=O [Example 27d, N-Nicotinyl-3-Aminopropionyl-D2Nal-D4ClPhe-D3Pal-Ser-NMeTyr-DLys(Shikimyl)-Leu-Arg-Pro-DAlaNH 2] ({Nicotinoyl-βAla}-[d2Nal][dPhe(4-Cl)][d3Pal]S[NMeY][dK](Shikimoyl)LRP[dA]-NH2), the Kb is reported as 0.00178 nM.

— patent US5502035A, “N-terminus modified analogs of LHRH” (Tap Holdings Inc., priority 1994, dated 1996)
